Columns and labels:
[1] = Stability analysis of raw API by titration method (BP); format: physicochemical; conditions: after 3 Months
From the text: (§1) In both studies the * Initial denotes the results of the samples tested at the time of receipt of the API from the supplier.

[2] = Stability analysis of raw API by stability indicating HPLC method; format: physicochemical; conditions: for Assay (%) HPLC / Percentage Drop (%) HPLC / loss in 3 Months: raw API; for Assay (%) HPLC / Percentage Drop (%) HPLC: after 3 Months
From the text: as §1

CC(=O)O[C@H]1C[C@@]2(C)[C@@H](C[C@@H](O)[C@H]3[C@@]4(C)CC[C@@H](O)[C@@H](C)[C@@H]4CC[C@@]32C)/C1=C(\CCC=C(C)C)C(=O)O [Sodium Fusidate]
Assay (%) Titration ([1]; 45° C. (C) closed Petri dish): 97.16%
Percentage Drop (%) Titration ([1]; 45° C. (C) closed Petri dish): 1.54%
Assay (%) Titration ([1]; 45° C. (O) open Petri dish): 97.07%
Percentage Drop (%) Titration ([1]; 45° C. (O) open Petri dish): 1.63%
Assay (%) Titration ([1]; RT (C) closed Petri dish): 98.85%
Percentage Drop (%) Titration ([1]; RT (C) closed Petri dish): −0.15%
Assay (%) Titration ([1]; RT (O) open Petri dish): 97.71%
Percentage Drop (%) Titration ([1]; RT (O) open Petri dish): 0.99%
Initial (%) ([2]; raw API tested at the time of receipt from the supplier, method not stated): 98.7%
Assay (%) HPLC ([2]; 45° C. (C) closed Petri dish): 92.96%
Percentage Drop (%) HPLC ([2]; 45° C. (C) closed Petri dish): 5.74%
Assay (%) HPLC ([2]; 45° C. (O) open Petri dish): 92.65%
Percentage Drop (%) HPLC ([2]; 45° C. (O) open Petri dish): 6.05%
loss in 3 Months ([2]; 45° C. (open condition)): about 6%
Assay (%) HPLC ([2]; RT (C) closed Petri dish): 97.67%
Percentage Drop (%) HPLC ([2]; RT (C) closed Petri dish): 1.03%
Assay (%) HPLC ([2]; RT (O) open Petri dish): 96.25%
Percentage Drop (%) HPLC ([2]; RT (O) open Petri dish): 2.45%
loss in 3 Months ([2]; room temperature (open condition)): about 2.5%
stability as an API, Sodium Fusidate compared with Fusidic acid ([2]; raw APIs, Tables 1 and 2): significantly more stable than Fusidic acid
